Test results published in paper doi:10.1101/2024.10.09.24315180v1, “Schizandrin A suppressed pancreatic cancer proliferation and cancer associated fibroblast activation via inhibiting the COX-2/ALOX5 shunting” (medrxiv, 2024).

Key:
COX-2 = molecular target: T1, COX-2 (Homo sapiens, UniProt P35354); test: SPR, Biacore T200, CM5 chip, multi-cycle; type: binding
T1 construct: gene PTGS2; immobilised on CM5 chip
T1 sequence (P35354 18-604): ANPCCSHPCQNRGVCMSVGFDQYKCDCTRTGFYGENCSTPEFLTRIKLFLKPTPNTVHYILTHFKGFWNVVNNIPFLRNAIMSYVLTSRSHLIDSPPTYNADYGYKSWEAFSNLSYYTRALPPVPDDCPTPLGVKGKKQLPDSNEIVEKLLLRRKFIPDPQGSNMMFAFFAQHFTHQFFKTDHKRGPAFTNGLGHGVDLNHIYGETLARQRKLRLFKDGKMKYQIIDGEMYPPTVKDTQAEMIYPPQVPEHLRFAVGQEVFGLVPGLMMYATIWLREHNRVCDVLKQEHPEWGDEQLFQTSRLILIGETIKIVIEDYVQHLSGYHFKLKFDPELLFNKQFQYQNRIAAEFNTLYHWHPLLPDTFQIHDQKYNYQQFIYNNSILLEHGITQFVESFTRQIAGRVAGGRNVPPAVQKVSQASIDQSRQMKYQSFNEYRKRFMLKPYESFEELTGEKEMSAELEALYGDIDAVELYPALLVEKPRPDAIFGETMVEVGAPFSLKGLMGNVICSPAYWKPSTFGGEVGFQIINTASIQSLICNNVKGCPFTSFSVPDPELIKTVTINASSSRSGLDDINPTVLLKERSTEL

ALOX5 = molecular target: T2, ALOX5 (Homo sapiens, UniProt P09917); test: SPR, Biacore T200, CM5 chip, multi-cycle; type: binding
T2 construct: immobilised on CM5 chip
T2 sequence (P09917 1-674): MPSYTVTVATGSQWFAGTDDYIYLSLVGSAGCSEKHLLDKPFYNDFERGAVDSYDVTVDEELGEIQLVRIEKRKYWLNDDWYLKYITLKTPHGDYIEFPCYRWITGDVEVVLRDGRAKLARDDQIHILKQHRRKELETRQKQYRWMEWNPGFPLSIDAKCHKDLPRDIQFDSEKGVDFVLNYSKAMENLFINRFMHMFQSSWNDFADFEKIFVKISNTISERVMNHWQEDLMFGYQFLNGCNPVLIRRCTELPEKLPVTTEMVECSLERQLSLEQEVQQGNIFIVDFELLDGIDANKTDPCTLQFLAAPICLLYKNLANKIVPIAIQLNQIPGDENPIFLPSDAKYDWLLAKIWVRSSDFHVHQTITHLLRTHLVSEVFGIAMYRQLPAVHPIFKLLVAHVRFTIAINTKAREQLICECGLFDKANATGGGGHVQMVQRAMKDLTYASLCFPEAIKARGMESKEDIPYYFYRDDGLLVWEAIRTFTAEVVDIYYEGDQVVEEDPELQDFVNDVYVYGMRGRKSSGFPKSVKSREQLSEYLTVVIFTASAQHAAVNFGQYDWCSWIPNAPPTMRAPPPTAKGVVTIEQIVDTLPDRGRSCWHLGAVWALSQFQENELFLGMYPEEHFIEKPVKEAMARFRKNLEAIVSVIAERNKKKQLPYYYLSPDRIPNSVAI

Kd (COX-2): 14.8 µM
Kd (ALOX5): 21.8 µM
Structure (SMILES): COc1cc2c(c(OC)c1OC)-c1c(cc(OC)c(OC)c1OC)C[C@H](C)[C@H](C)C2 [Schizandrin A]
